The source of these data is patent US4352803A, “Novel naphthyridine derivatives, intermediates thereof, processes for preparation thereof, and use thereof” (Dainippon Pharmaceutical Co., Ltd., priority 1978, dated 1982).

What is called LD50 is the dose expected to kill half of the subjects tested. Usually ED50 stands for the midpoint of the dose-response relation. Read a high ED50 as a need for a large dose.

Values after ≈ are worked out from the molar mass of the structure shown. “Also recorded” adds a separate entry of the source. Read-outs that look alike come from different tables or passages of the source. A value given as a limit tells only on which side of the number the result lay.

Data set [1] concerns Escherichia coli P-5101. In words: In vitro antibacterial activity (MIC), Escherichia coli P-5101. The following applies: P5101; Escherichia coli P-5101; read-out: minimum inhibitory concentration (MIC). It counts as cell-based. The text has this: (§1) (MIC) (μg/ml) Method; Chemotherapy, 22(6), 1126 (1974)
Data set [2] deals with Shigella flexneri 2a. In words: In vitro antibacterial activity (MIC), Shigella flexneri 2a. In kind it is cell-based. To be noted: read-out: minimum inhibitory concentration (MIC).
Text: as §1

For data set [3], the system named is Proteus mirabilis P-2381. Nature of the data set: In vitro antibacterial activity (MIC), Proteus mirabilis P-2381. It counts as cell-based. The following applies: P2381; Proteus mirabilis P-2381; read-out: minimum inhibitory concentration (MIC).
Text: as §1

The test system of data set [4] is Streptococcus pyogenes 65A. Nature of the data set: In vitro antibacterial activity (MIC), Streptococcus pyogenes 65A. The following applies: Streptococcus pyogenes 65A; read-out: minimum inhibitory concentration (MIC). In kind it is cell-based.
Text: as §1

Data set [5] is described as follows: in vivo. The following applies: mouse, in vivo, po. Here is the method: The number of dead mice was counted after 7 days, and the value of median lethal dose (LD50, mg/kg) was calculated in accordance with the Behrens-Kaerber method.
The test system of data set [6] is Staphylococcus aureus No. 50774. In words: In vitro antibacterial activity (MIC), Staphylococcus aureus No. 50774. In kind it is cell-based. To be noted: Staphylococcus aureus No. 50774; read-out: minimum inhibitory concentration (MIC).
Text: as §1

In data set [7] the test system is Pseudomonas aeruginosa Tsuchijima. Nature of the data set: In vitro antibacterial activity (MIC), Pseudomonas aeruginosa Tsuchijima. It counts as cell-based. The following applies: Pseudomonas aeruginosa Tsuchijima; read-out: minimum inhibitory concentration (MIC).
Text: as §1

Data set [8] deals with Shigella flexneri 4a P-330. In words: In vitro antibacterial activity (MIC), Shigella flexneri 4a P-330. The following applies: 4AP330, read-out: minimum inhibitory concentration (MIC). In kind it is cell-based.
Text: as §1

The test system of data set [9] is Klebsiella pneumoniae No. 13. In words: In vitro antibacterial activity (MIC), Klebsiella pneumoniae No. 13. In kind it is cell-based.
Text: as §1

Data set [10] concerns Serratia marcescens IFC 3736. In words: In vitro antibacterial activity (MIC), Serratia marcescens IFC 3736. In kind it is cell-based.
Text: as §1

For data set [11], the system named is Salmonella typhimurium 8-9. In words: In vitro antibacterial activity (MIC), Salmonella typhimurium 8-9. It counts as cell-based. To be noted: Salmonella enterica, read-out: minimum inhibitory concentration (MIC).
Text: as §1

Data set [12] relates to Proteus morganii Kono. In words: In vitro antibacterial activity (MIC), Proteus morganii Kono. It counts as cell-based. The following applies: Morganella morganii, read-out: minimum inhibitory concentration (MIC).
Text: as §1

The subject of data set [13] is Pseudomonas aeruginosa No. 12. Nature of the data set: in vivo efficacy against systemic infection in mice, Pseudomonas aeruginosa No. 12. The following applies: NO.12, in Mus musculus, po, 168 h.
Procedure: Male mice (ddY) weighing about 20 g
(3) Pseudomonas aeruginosa No. 12;
(about 5 × 10^3 cells/mouse) of a bacterial
(§2) suspension in trypto-soy broth with 4% mucin.
(§3) Twice, about 5 minutes and 6 hours after infection.
The numerals in the table show ED50 (mg/kg). ED50 values were
The subject of data set [14] is Staphylococcus aureus 209P JC-1. Nature of the data set: In vitro antibacterial activity (MIC), Staphylococcus aureus 209P JC-1. It counts as cell-based. The following applies: Staphylococcus aureus 209P JC-1; read-out: minimum inhibitory concentration (MIC).
Text: as §1

The subject of data set [15] is Escherichia coli NIHJ JC-2. Nature of the data set: In vitro antibacterial activity (MIC), Escherichia coli NIHJ JC-2. In kind it is cell-based.
Text: as §1

Data set [16] deals with Corynebacterium pyogenes C-21. In words: In vitro antibacterial activity (MIC), Corynebacterium pyogenes C-21. It counts as cell-based. To be noted: Rhodococcus (subgen. Prescottella) equi, C21; Corynebacterium pyogenes C-21; read-out: minimum inhibitory concentration (MIC).
Text: as §1

Data set [17] relates to Streptococcus faecalis P-2473. In words: In vitro antibacterial activity (MIC), Streptococcus faecalis P-2473. In kind it is cell-based. To be noted: Enterococcus faecalis, P2473; Streptococcus faecalis P-2473; read-out: minimum inhibitory concentration (MIC).
Text: as §1

For data set [18], the system named is Salmonella enteritidis No. 1891. Nature of the data set: In vitro antibacterial activity (MIC), Salmonella enteritidis No. 1891. In kind it is cell-based. To be noted: Salmonella enterica; Salmonella enteritidis No. 1891; read-out: minimum inhibitory concentration (MIC).
Text: as §1

For data set [19], the system named is Pseudomonas aeruginosa No. 12. In words: In vitro antibacterial activity (MIC), Pseudomonas aeruginosa No. 12. In kind it is cell-based. The following applies: Pseudomonas aeruginosa No. 12; read-out: minimum inhibitory concentration (MIC).
Text: as §1

The subject of data set [20] is Escherichia coli P-5101. Nature of the data set: in vivo efficacy against systemic infection in mice, Escherichia coli P-5101. To be noted: P5101, in Mus musculus, po, 168 h.
Procedure: Male mice (ddY) weighing about 20 g
Intraperitoneal infection with (about
9 × 10^6 cells/mouse) of a bacterial
as §2, §3
The test system of data set [21] is Escherichia coli P-140a. In words: In vitro antibacterial activity (MIC), Escherichia coli P-140a. In kind it is cell-based. To be noted: read-out: minimum inhibitory concentration (MIC).
Text: as §1

Data set [22] concerns Enterobacter cloacae P-2540. Nature of the data set: In vitro antibacterial activity (MIC), Enterobacter cloacae P-2540. In kind it is cell-based.
Text: as §1

Data set [23] deals with Staphylococcus aureus No. 50774. Nature of the data set: in vivo efficacy against systemic infection in mice, Staphylococcus aureus No. 50774. The following applies: NO.50774, in Mus musculus, po, 336 h.
Procedure: Male mice (ddY) weighing about 20 g
Intravenous infection with (about
5 × 10^8 cells/mouse) of a bacterial
as §3
Data set [24] concerns Gram-positive bacteria and Gram-negative bacteria. In words: In vitro antibacterial activity against 19 strains of bacteria (overall). It counts as cell-based. The following applies: comparisons are with compounds of the invention.
Text: as §1

Data set [25] concerns Gram-positive and Gram-negative bacteria. In words: in vivo therapeutic efficacy against systemic infections in mice (overall). The arrangement: species or system mice (ddY). To be noted: systemic infections with Gram-positive and Gram-negative bacteria.

Turning to `C=Cn1cc(C(=O)O)c(=O)c2cc(Cl)c(N3CCNCC3)nc21` [Compound 4, 6-Chloro-1,4-dihydro-4-oxo-7-(1-piperazinyl)-1-vinyl-1,8-naphthyridine-3-carboxylic acid], the MIC in [1] was determined as 0.1 µg/mL (≈ 0.299 µM); in data set [2] it was 0.2 µg/mL (≈ 0.597 µM); in data set [3], 0.78 µg/mL (≈ 2.33 µM); in [4] it was 6.25 µg/mL (≈ 18.7 µM); in data set [6], 6.25 µg/mL (≈ 18.7 µM); in data set [7], 1.56 µg/mL (≈ 4.66 µM). Moreover, the MIC in data set [8] worked out at 0.2 µg/mL (≈ 0.597 µM); in [9] (Klebsiella pneumoniae No. 13, read-out: minimum inhibitory concentration (MIC)), 0.39 µg/mL (≈ 1.17 µM); in data set [10] (IFC3736, Serratia marcescens IFC 3736, read-out: minimum inhibitory concentration (MIC)), 0.78 µg/mL (≈ 2.33 µM); in data set [11] (Salmonella typhimurium 8-9), 0.2 µg/mL (≈ 0.597 µM); in [12] (Proteus morganii Kono), 0.2 µg/mL (≈ 0.597 µM); in [14], 3.13 µg/mL (≈ 9.35 µM). Moreover, the MIC was 0.2 µg/mL (≈ 0.597 µM) in data set [15] (NIHJJC2, Escherichia coli NIHJ JC-2, read-out: minimum inhibitory concentration (MIC)); 6.25 µg/mL (≈ 18.7 µM) in data set [16]; 12.5 µg/mL (≈ 37.3 µM) in [17]; 0.2 µg/mL (≈ 0.597 µM) in data set [18]; 1.56 µg/mL (≈ 4.66 µM) in data set [19]; 0.1 µg/mL (≈ 0.299 µM) in data set [21] (P140A, Escherichia coli P-140a). In addition, the MIC in data set [22] (P2540, Enterobacter cloacae P-2540, read-out: minimum inhibitory concentration (MIC)) is 0.2 µg/mL (≈ 0.597 µM). For the same compound, in data set [5], the LD50 at 168 h was > 2000 mg/kg. In addition, the ED50 in [13] was 18.5 mg/kg; in [20], 4.8 mg/kg; in data set [23] it was ~100 mg/kg.
Regarding `CCn1cc(C(=O)O)c(=O)c2ccc(N3CCNCC3)nc21` [Compound A, 1-Ethyl-1,4-dihydro-4-oxo-7-(1-piperazinyl)-1,8-naphthyridine-3-carboxylic acid], the MIC in data set [1] is 3.13 µg/mL (≈ 10.4 µM); in data set [2] it was 6.25 µg/mL (≈ 20.7 µM); in data set [3], 25 µg/mL (≈ 82.7 µM); in [4], 50 µg/mL (≈ 165 µM); in data set [6] it was 50 µg/mL (≈ 165 µM); in [7], 25 µg/mL (≈ 82.7 µM). For the same compound, the MIC in data set [8] amounted to 12.5 µg/mL (≈ 41.3 µM); in data set [9] (Klebsiella pneumoniae, NO.13, read-out: minimum inhibitory concentration (MIC)) it was 12.5 µg/mL (≈ 41.3 µM); in data set [10] (Serratia marcescens, IFC3736, read-out: minimum inhibitory concentration (MIC)), 12.5 µg/mL (≈ 41.3 µM); in data set [11] (TYPHIMURIUM), 6.25 µg/mL (≈ 20.7 µM); in data set [12] it was 6.25 µg/mL (≈ 20.7 µM); in [14], 25 µg/mL (≈ 82.7 µM). For the same compound, the MIC was 6.25 µg/mL (≈ 20.7 µM) in data set [15] (Escherichia coli, NIHJJC2, read-out: minimum inhibitory concentration (MIC)); 50 µg/mL (≈ 165 µM) in [16]; > 100 µg/mL in data set [17]; 1.56 µg/mL (≈ 5.16 µM) in data set [18]; 25 µg/mL (≈ 82.7 µM) in [19]; 6.25 µg/mL (≈ 20.7 µM) in data set [21] (Escherichia coli). Besides, the MIC in data set [22] (Enterobacter cloacae, P2540, read-out: minimum inhibitory concentration (MIC)) is 6.25 µg/mL (≈ 20.7 µM). Further, the “antibacterial activity (in words)” value in [24] was “much inferior antibacterial activity; also recorded: clearly inferior”. The “therapeutic effect / in vivo antibacterial activity (in words)” value in [25] is given as “clearly inferior”. In addition, the ED50 in data set [13] was > 200 mg/kg; in data set [23], > 100 mg/kg.
